Source: patent US20080194482A1, “Selective Apac2 Receptor Peptide Agonists” (priority 2005, published 2008)
Square brackets hold non-standard residues; d marks the D form. Peptide text beside a SMILES is read from it. * marks the point of attachment. Orn = NCCC[C@H](N)C(=O)O; Hexanoyl = CCCCCC(=O)*; Aib = CC(C)(N)C(=O)O

What was measured:
[1] = molecular target: T1, rat VPAC2 receptor (Rattus norvegicus, UniProt P35000); assay: DiscoveRx cAMP assay, in vitro potency at rat VPAC2 receptor; format: cell-based; conditions: CHO-PO cells transiently transfected with rat VPAC2; cAMP generation; mean of two independent runs
T1 construct: expressed in transfected cells; host or cells: CHO-PO (transient, Lipofectamine)
T1 sequence (P35000 23-437): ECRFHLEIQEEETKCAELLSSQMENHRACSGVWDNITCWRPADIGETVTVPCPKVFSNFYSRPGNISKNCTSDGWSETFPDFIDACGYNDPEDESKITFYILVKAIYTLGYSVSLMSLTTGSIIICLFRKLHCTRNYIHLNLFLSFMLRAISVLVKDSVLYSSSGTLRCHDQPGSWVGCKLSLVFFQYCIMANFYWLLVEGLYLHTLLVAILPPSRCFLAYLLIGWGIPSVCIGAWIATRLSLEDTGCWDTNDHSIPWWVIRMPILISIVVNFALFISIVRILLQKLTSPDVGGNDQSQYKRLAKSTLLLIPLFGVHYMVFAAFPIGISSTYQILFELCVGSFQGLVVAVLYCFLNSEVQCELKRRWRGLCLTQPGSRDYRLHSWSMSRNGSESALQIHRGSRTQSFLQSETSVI
Description: DiscoveRx: CHO-PO cells are transiently transfected with rat VPAC1 or VPAC2 receptor DNA using commercially available transfection reagents (Lipofectamine from Invitrogen). The cells are seeded at a density of 10,000/well in a 96-well plate and are allowed to grow for 3 days in […] culture medium. At day 3, the assay is performed.
On the day of the experiment, the medium is removed. Also, the cells are washed twice. The cells are incubated in assay buffer plus IBMX for 15 minutes at room temperature. Afterwards, the stimuli are added and are dissolved in assay buffer. The stimuli are present for 30 minutes. Then, the assay buffer is gently removed. The cell lysis reagent of the DiscoveRx cAMP kit is added. Thereafter, the standard protocol for developing the cAMP signal as described by the manufacturer is used (DiscoveRx Inc., USA). EC50 values for cAMP generation are calculated from the raw signal or are based on absolute cAMP levels as determined by a standard curve performed on each plate.
Results for each agonist are the mean of two independent runs. Rat VPAC1 and VPAC2 results are only generated using the DiscoveRx assay.

[2] = molecular target: T2, human VPAC2 (Homo sapiens, UniProt P41587); assay: Alpha screen cAMP assay, in vitro potency at human VPAC2 receptor; format: cell-based; conditions: cAMP generation; single result from two analyses in a single run, some values average of more than one experiment
T2 construct: expressed in transfected cells
T2 sequence (P41587 24-438): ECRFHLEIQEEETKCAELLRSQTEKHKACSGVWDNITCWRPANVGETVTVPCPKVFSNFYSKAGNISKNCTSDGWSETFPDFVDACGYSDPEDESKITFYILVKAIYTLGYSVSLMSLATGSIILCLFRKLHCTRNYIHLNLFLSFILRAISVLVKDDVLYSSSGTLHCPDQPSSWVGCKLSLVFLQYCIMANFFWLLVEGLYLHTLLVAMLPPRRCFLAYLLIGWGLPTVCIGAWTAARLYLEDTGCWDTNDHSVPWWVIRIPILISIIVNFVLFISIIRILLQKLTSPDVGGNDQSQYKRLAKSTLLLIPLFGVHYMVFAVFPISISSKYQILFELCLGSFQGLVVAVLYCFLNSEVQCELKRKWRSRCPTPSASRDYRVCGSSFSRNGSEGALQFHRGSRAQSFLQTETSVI

[3] = molecular target: T3, human VPAC1 (Homo sapiens, UniProt P32241); assay: Filter binding assay, 125I-labeled VIP tracer, VPAC1 membranes; conditions: read-out: Human VPAC1 Receptor Binding (IC50; nM)
T3 construct: expressed in transfected cells
T3 sequence (P32241 31-457): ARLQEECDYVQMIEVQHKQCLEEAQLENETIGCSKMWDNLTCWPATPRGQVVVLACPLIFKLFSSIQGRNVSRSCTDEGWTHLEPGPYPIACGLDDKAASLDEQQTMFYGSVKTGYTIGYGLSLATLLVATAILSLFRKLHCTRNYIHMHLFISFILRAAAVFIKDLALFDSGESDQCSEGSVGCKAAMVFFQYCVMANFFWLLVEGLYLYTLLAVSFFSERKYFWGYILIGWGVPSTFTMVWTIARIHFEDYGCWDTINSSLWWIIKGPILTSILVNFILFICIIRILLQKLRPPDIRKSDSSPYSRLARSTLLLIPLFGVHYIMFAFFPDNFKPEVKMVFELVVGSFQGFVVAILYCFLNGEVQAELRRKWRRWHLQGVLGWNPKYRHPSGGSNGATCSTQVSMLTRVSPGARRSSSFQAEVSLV
Description: For this assay, the solutions and equipment include:
Presoak solution: 0.5% Polyethyleneamine in Aqua dest
Buffer for flushing filter plates: 25 mM HEPES pH 7.4
Blocking buffer: 25 mM HEPES pH 7.4; 0.2% protease free BSA
Assay buffer: 25 mM HEPES pH 7.4; 0.5% protease free BSA
Dilution and assay plate: PS-Microplate, U form
Filtration Plate: Multiscreen FB Opaque Plate; 1.0 μM Type B Glasfiber filter
In order to prepare the filter plates, the presoak solution is aspirated by vacuum filtration. The plates are flushed twice with 200 μL flush buffer. 200 μL blocking buffer is added to the filter plate. The filter plate is then incubated with 200 μL presoak solution for 1 hour at room temperature.
The assay plate is filled with 25 μL assay buffer, 25 μL membranes (2.5 μg) suspended in assay buffer, 25 μL compound (agonist) in assay buffer, and 25 μL tracer (about 40000 cpm) in assay buffer. The filled plate is incubated for 1 hour with shaking.
The transfer from assay plate to filter plate is conducted. The blocking buffer is aspirated by vacuum filtration and washed two times with flush buffer. 90 μL is transferred from the assay plate to the filter plate. The 90 μL transferred from assay plate is aspirated and washed three times with 200 μL flush buffer. The plastic support is removed. It is dried for 1 hour at 60° C. 30 μL Microscint is added. The count is performed.

[4] = Rat serum stability (activity remaining, CHO-VPAC2 DiscoveRx read-out); format: in vitro ADME
How it was run: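 Peptides preincubated overnight in rat serum at 37 °C without aprotinin versus 4 °C with aprotinin, then tested as 11-point 5× dilutions in duplicate on CHO-VPAC2 cells, 30 min at RT. cAMP measured by DiscoveRx kit against standards; EC50 derived for each aliquot.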

[5] = molecular target: T4, human PAC1 (Homo sapiens, UniProt P41586); assay: Filter binding assay, 125I-labeled PACAP-27 tracer, PAC1 membranes; conditions: read-out: Human PAC1 Receptor Binding (IC50; nM)
T4 construct: expressed in transfected cells
T4 sequence (P41586 21-468): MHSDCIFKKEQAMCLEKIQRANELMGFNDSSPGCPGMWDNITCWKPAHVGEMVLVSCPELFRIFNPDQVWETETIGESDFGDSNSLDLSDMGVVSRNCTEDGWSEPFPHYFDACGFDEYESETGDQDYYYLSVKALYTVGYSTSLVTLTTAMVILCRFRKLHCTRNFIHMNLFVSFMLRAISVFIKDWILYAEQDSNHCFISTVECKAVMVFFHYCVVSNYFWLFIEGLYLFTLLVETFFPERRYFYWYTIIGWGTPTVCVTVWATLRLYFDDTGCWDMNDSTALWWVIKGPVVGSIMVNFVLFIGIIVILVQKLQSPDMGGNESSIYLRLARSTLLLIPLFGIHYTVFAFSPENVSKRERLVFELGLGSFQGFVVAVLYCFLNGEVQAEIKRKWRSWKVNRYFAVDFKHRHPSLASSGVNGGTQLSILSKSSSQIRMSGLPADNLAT

CCCCCC(=O)N[C@@H](Cc1c[nH]cn1)C(=O)N[C@@H](CO)C(=O)N[C@@H](CC(=O)O)C(=O)N[C@@H](C)C(=O)N[C@H](C(=O)N[C@@H](Cc1ccccc1)C(=O)N[C@H](C(=O)N[C@@H](CC(=O)O)C(=O)N[C@@H](CC(N)=O)C(=O)N[C@@H](Cc1ccc(O)cc1)C(=O)N[C@H](C(=O)N[C@@H](CCCNC(=N)N)C(=O)N[C@@H](CC(C)C)C(=O)N[C@@H](CC(C)C)C(=O)N[C@@H](C)C(=O)N[C@@H](CCCCN)C(=O)N[C@@H](CC(C)C)C(=O)N[C@@H](C)C(=O)N[C@@H](CC(C)C)C(=O)N[C@@H](CCC(N)=O)C(=O)N[C@@H](CCCCN)C(=O)N[C@@H](Cc1ccc(O)cc1)C(=O)N[C@@H](CC(C)C)C(=O)N[C@@H](CCC(N)=O)C(=O)N[C@@H](CO)C(=O)N[C@H](C(=O)N[C@@H](CCCN)C(=O)N[C@@H](CC(N)=O)C(=O)N[C@@H](CCCN)C(=O)NCC(=O)NCC(=O)N1CCC[C@H]1C(=O)N[C@@H](CO)C(=O)N[C@@H](CO)C(=O)NCC(=O)N[C@@H](C)C(=O)N1CCC[C@H]1C(=O)N1CCC[C@H]1C(=O)N1CCC[C@H]1C(=O)N[C@@H](CO)C(=O)O)[C@@H](C)CC)[C@@H](C)O)[C@@H](C)O)C(C)C [Agonist P370] (Hexanoyl-HSDAVFTDNYTRLLAKLALQKYLQSI[Orn]N[Orn]GGPSSGAPPPS-OH; C-terminus assumed)
EC50 [1]: 0.05 nM
EC50 [2]: 0.23 nM
IC50 [3]: > 3000 nM
Rat Serum Stability (estimated purity in % after overnight incub.) [4]: 41.82%
IC50 [5]: > 25000 nM

CCCCCC(=O)N[C@@H](Cc1c[nH]cn1)C(=O)N[C@@H](CO)C(=O)N[C@@H](CC(=O)O)C(=O)N[C@@H](C)C(=O)N[C@H](C(=O)N[C@@H](Cc1ccccc1)C(=O)N[C@H](C(=O)N[C@@H](CC(=O)O)C(=O)N[C@@H](CC(N)=O)C(=O)N[C@@H](Cc1ccc(O)cc1)C(=O)N[C@H](C(=O)N[C@@H](CCCN)C(=O)N[C@@H](CC(C)C)C(=O)N[C@@H](CCCNC(=N)N)C(=O)NC(C)(C)C(=O)N[C@@H](CCC(N)=O)C(=O)N[C@H](C(=O)N[C@@H](C)C(=O)N[C@@H](C)C(=O)NC(C)(C)C(=O)N[C@@H](CCCCN)C(=O)N[C@@H](Cc1ccc(O)cc1)C(=O)N[C@@H](CC(C)C)C(=O)N[C@@H](CO)C(=O)N[C@@H](CO)C(=O)N[C@H](C(=O)N[C@@H](CCCN)C(=O)N[C@@H](CC(N)=O)C(=O)N[C@@H](CCCN)C(=O)NCC(=O)NCC(=O)N1CCC[C@H]1C(=O)N[C@@H](CO)C(=O)N[C@@H](CO)C(=O)NCC(=O)N[C@@H](C)C(=O)N1CCC[C@H]1C(=O)N1CCC[C@H]1C(=O)N1CCC[C@H]1C(=O)N[C@@H](CO)C(=O)O)[C@@H](C)CC)C(C)C)[C@@H](C)O)[C@@H](C)O)C(C)C [Agonist P383] (Hexanoyl-HSDAVFTDNYT[Orn]LR[Aib]QVAA[Aib]KYLSSI[Orn]N[Orn]GGPSSGAPPPS-OH; C-terminus assumed)
EC50 [1]: 0.18 nM
EC50 [2]: 0.12 nM
IC50 [3]: > 3000 nM
Rat Serum Stability (estimated purity in % after overnight incub.) [4]: 113.66%
IC50 [5]: > 25000 nM

CCCCCC(=O)N[C@@H](Cc1c[nH]cn1)C(=O)N[C@@H](CO)C(=O)N[C@@H](CC(=O)O)C(=O)N[C@@H](C)C(=O)N[C@H](C(=O)N[C@@H](Cc1ccccc1)C(=O)N[C@H](C(=O)N[C@@H](CC(=O)O)C(=O)N[C@@H](CCC(N)=O)C(=O)N[C@@H](Cc1ccc(O)cc1)C(=O)N[C@H](C(=O)N[C@@H](CCCN)C(=O)N[C@@H](CC(C)C)C(=O)N[C@@H](CCCNC(=N)N)C(=O)NC(C)(C)C(=O)N[C@@H](CCC(N)=O)C(=O)N[C@H](C(=O)N[C@@H](C)C(=O)N[C@@H](C)C(=O)NC(C)(C)C(=O)N[C@@H](CCCCN)C(=O)N[C@@H](Cc1ccc(O)cc1)C(=O)N[C@@H](CC(C)C)C(=O)N[C@@H](CCC(N)=O)C(=O)N[C@@H](CO)C(=O)N[C@H](C(=O)N[C@@H](CCCN)C(=O)N[C@@H](CCC(N)=O)C(=O)N[C@@H](CCCN)C(=O)NCC(=O)NCC(=O)N1CCC[C@H]1C(=O)N[C@@H](CO)C(=O)N[C@@H](CO)C(=O)NCC(=O)N[C@@H](C)C(=O)N1CCC[C@H]1C(=O)N1CCC[C@H]1C(=O)N1CCC[C@H]1C(=O)N[C@@H](CO)C(=O)O)[C@@H](C)CC)C(C)C)[C@@H](C)O)[C@@H](C)O)C(C)C [Agonist P363] (Hexanoyl-HSDAVFTDQYT[Orn]LR[Aib]QVAA[Aib]KYLQSI[Orn]Q[Orn]GGPSSGAPPPS-OH; C-terminus assumed)
EC50 [1]: 0.09 nM
EC50 [2]: 0.27 nM
IC50 [3]: > 3000 nM
Rat Serum Stability (estimated purity in % after overnight incub.) [4]: 81.66%
IC50 [5]: > 25000 nM

CCCCCC(=O)N[C@@H](Cc1c[nH]cn1)C(=O)N[C@@H](CO)C(=O)N[C@@H](CC(=O)O)C(=O)N[C@@H](C)C(=O)N[C@H](C(=O)N[C@@H](Cc1ccccc1)C(=O)N[C@H](C(=O)N[C@@H](CC(=O)O)C(=O)N[C@@H](CC(N)=O)C(=O)N[C@@H](Cc1ccc(O)cc1)C(=O)N[C@H](C(=O)N[C@@H](CCCNC(=N)N)C(=O)N[C@@H](CC(C)C)C(=O)N[C@@H](CCCNC(=N)N)C(=O)NC(C)(C)C(=O)N[C@@H](CCC(N)=O)C(=O)N[C@H](C(=O)N[C@@H](C)C(=O)N[C@@H](C)C(=O)NC(C)(C)C(=O)N[C@@H](CCCCN)C(=O)N[C@@H](Cc1ccc(O)cc1)C(=O)N[C@@H](CC(C)C)C(=O)N[C@@H](CCC(N)=O)C(=O)N[C@@H](CO)C(=O)N[C@H](C(=O)N[C@@H](CCCCN)C(=O)NC(C)(C)C(=O)N[C@@H](CCCN)C(=O)NCC(=O)NCC(=O)N1CCC[C@H]1C(=O)N[C@@H](CO)C(=O)N[C@@H](CO)C(=O)NCC(=O)N[C@@H](C)C(=O)N1CCC[C@H]1C(=O)N1CCC[C@H]1C(=O)N1CCC[C@H]1C(=O)N[C@@H](CO)C(=O)O)[C@@H](C)CC)C(C)C)[C@@H](C)O)[C@@H](C)O)C(C)C [Agonist P357]
EC50 [2]: 0.23 nM
IC50 [3]: > 3000 nM
Rat Serum Stability (estimated purity in % after overnight incub.) [4]: 38.83%
IC50 [5]: > 25000 nM
